From the supplement of paper PMC11208160

Experiment: recombinant UMI read abundance after kanamycin selection (control-corrected) (log10(CPM+1)); higher = more efficient recombination; extreme values may be limits of the assay; sequences stand for … in AGTGCAGAGAAAATCGGCCAGTTTTCTCTGCCTGCAGTCCGCATGCCGTGGGACCCCTTGGGTTCTAACCTGTTGCCTAGATTTATGCAGCGGACTGCCTTTCTCCCAAAGTGATAAACCGG…AGGTTGGTTTCACT; site = the 11-nt donor
Experimental: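 Pooled E. coli donor-specificity screen for the IS621 bridge recombinase. Each library member carries a reprogrammed 11-nt donor and a full-length LE bridge RNA expressed in cis from the natural promoter, with a paired donor-binding loop (8-nt LDG + 4-nt RDG) and a target-binding loop fixed to T5. It is co-electroporated with a T5 target plasmid; recombinase is induced with 0.07 mM IPTG and recombinants are selected on kanamycin. UMIs are counted as CPM, averaged over two biological replicates and corrected by the unselected control. Molecule = full bridge RNA written as DNA, built from the T5 scaffold: LDG = donor specificity nt 1-8, RDG = reverse complement of nt 8-11.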
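Also: IS621 bridge recombinase in Escherichia coli cells against a fixed T5 target plasmid.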

Sequence	recombinant UMI read abundance (log10)
ACAATGGCATGGACCGGTTTTCCCGGTAATCCGTATTTGAT (site ACAATGGCTAT)	2.3
ACACAGCCATGGACCGGTTTTCCCGGTAATCCGTATTTGAC (site ACACAACCTGT)	0
ACACAGCCATGGACCGGTTTTCCCGGTAATCCGTATTTGAC (site ACACACCCTGT)	1.68
ACACAGCCATGGACCGGTTTTCCCGGTAATCCGTATTTGAC (site ACACAGCCTGT)	1.05
ACACAGCCATGGACCGGTTTTCCCGGTAATCCGTATTTGAC (site ACACATCCTGT)	0.0116
ACACAGCCATGGACCGGTTTTCCCGGTAATCCGTATTTGTG (site ACACAGCCTCA)	0.606
ACACCAACATGGACCGGTTTTCCCGGTAATCCGTATTTGTC (site ACACAAACTGA)	0
ACACCAACATGGACCGGTTTTCCCGGTAATCCGTATTTGTC (site ACACCAACTGA)	1.62
ACACCAACATGGACCGGTTTTCCCGGTAATCCGTATTTGTC (site ACACGAACTGA)	0
ACACCAACATGGACCGGTTTTCCCGGTAATCCGTATTTGTC (site ACACTAACTGA)	0
ACACCACCATGGACCGGTTTTCCCGGTAATCCGTATTTGAT (site ACACCACCTAT)	0.00417
ACACCTCCATGGACCGGTTTTCCCGGTAATCCGTATTTGAC (site ACACATCCTGT)	0
ACACCTCCATGGACCGGTTTTCCCGGTAATCCGTATTTGAC (site ACACCTCCTGT)	1.93
ACACCTCCATGGACCGGTTTTCCCGGTAATCCGTATTTGAC (site ACACGTCCTGT)	0
ACACCTCCATGGACCGGTTTTCCCGGTAATCCGTATTTGAC (site ACACTTCCTGT)	0
ACACGAACATGGACCGGTTTTCCCGGTAATCCGTATTTGAC (site ACACGAACTGA)	1.64
ACACGAACATGGACCGGTTTTCCCGGTAATCCGTATTTGAC (site ACACGAACTGC)	0
ACACGAACATGGACCGGTTTTCCCGGTAATCCGTATTTGAC (site ACACGAACTGG)	1.33

Sequence	recombinant UMI read abundance (log10)
ACACGAACATGGACCGGTTTTCCCGGTAATCCGTATTTGAC (site ACACGAACTGT)	2.62
ACACGAACATGGACCGGTTTTCCCGGTAATCCGTATTTGTG (site ACACGAACTAA)	0.269
ACACGAACATGGACCGGTTTTCCCGGTAATCCGTATTTGTG (site ACACGAACTCA)	1.91
ACACGAACATGGACCGGTTTTCCCGGTAATCCGTATTTGTG (site ACACGAACTGA)	0
ACACGAACATGGACCGGTTTTCCCGGTAATCCGTATTTGTG (site ACACGAACTTA)	0.766
ACACGACCATGGACCGGTTTTCCCGGTAATCCGTATTTGTC (site ACACGAACTGA)	0.0114
ACACGACCATGGACCGGTTTTCCCGGTAATCCGTATTTGTC (site ACACGACCTGA)	0
ACACGACCATGGACCGGTTTTCCCGGTAATCCGTATTTGTC (site ACACGAGCTGA)	0
ACACGACCATGGACCGGTTTTCCCGGTAATCCGTATTTGTC (site ACACGATCTGA)	1.22
ACACGCACATGGACCGGTTTTCCCGGTAATCCGTATTTGTC (site ACACGAACTGA)	1.62
ACACGCACATGGACCGGTTTTCCCGGTAATCCGTATTTGTC (site ACACGCACTGA)	2.85
ACACGCACATGGACCGGTTTTCCCGGTAATCCGTATTTGTC (site ACACGGACTGA)	0
ACACGCACATGGACCGGTTTTCCCGGTAATCCGTATTTGTC (site ACACGTACTGA)	0.934
ACACGGACATGGACCGGTTTTCCCGGTAATCCGTATTTGTC (site ACACGAACTGA)	0
ACACGGACATGGACCGGTTTTCCCGGTAATCCGTATTTGTC (site ACACGCACTGA)	0
ACACGGACATGGACCGGTTTTCCCGGTAATCCGTATTTGTC (site ACACGGACTGA)	0.491
ACACGGACATGGACCGGTTTTCCCGGTAATCCGTATTTGTC (site ACACGTACTGA)	0
ACACGTCCATGGACCGGTTTTCCCGGTAATCCGTATTTGAT (site ACACGTCCTAT)	1.56
